From patent US20230123334A1, “AMINO LIPID COMPOUND, PREPARATION METHOD THEREFOR, AND APPLICATION THEREOF” (SHENZHEN SHENXIN BIOTECHNOLOGY CO., LTD., priority 2020, published 2023) come the findings set out here.

In test [1] the test system is HEK293 cells. The test is described as follows: Preliminary screening as mRNA vectors, EGFP mRNA transfection of HEK293 cells. The class given is cell-based. The settings on record: HEK293 cells, 96-well plates, EGFP mRNA 50 ng per well; percentage of GFP fluorescent cells relative to total number of cells (Hoechst). In outline: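 Screening format: EGFP mRNA transfection (50 ng/well) into HEK293 in 10% FBS-supplemented DMEM. Percent green fluorescent cells, normalised to Hoechst nuclear count, gave the value; Lipofectamine2000 was the reference transfectant.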

For test [2], the system named is HEK293 cells. Description: Preliminary screening as DNA vectors, GFP transfection of HEK293 cells. The class given is cell-based. Particulars: HEK293 cells; lipid/DOPE liposome with 75 ng plasmid DNA (psin-EGFP-IRES-Puro); number of cells expressing GFP divided by total number of nuclei (Hoechst). A digest of the protocol:
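First, amino lipid and DOPE were vortexed in sodium acetate buffer (pH 5.6) to form liposomes. Next, these were held with 75 ng EGFP plasmid at room temperature for 30 min. Finally, HEK293 cells were added, cultured at 37° C., Hoechst-stained, and GFP+/total nuclei scored by imaging.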

In the case of `CCCCCCCCCCCCSc1nc(NCCN2CCOCC2)nc(SCCCCCCCCCCC)n1` [Compound S11S12D2], in test [1], the “Absolute mRNA transfection efficiency in HEK293 cells” value (“Absolute mRNA transfection efficiency” for short) is 0.0%. In addition, in test [2], the “Absolute DNA transfection efficiency in HEK293 cells” value (shortened to “Absolute DNA transfection efficiency”) is on record as 0.1%.
Take `CCCCCCCCCCCCSc1nc(NCCN2CCCC2)nc(SCCCCCCCCCCC)n1` [Compound S11S12D3]: in test [1], the “Absolute mRNA transfection efficiency” value was 3.2%. The “Absolute DNA transfection efficiency” value in test [2] stood at 5.4%.
With `CCCCCCCCCCCCSc1nc(NCCN2CCCCC2)nc(SCCCCCCCCCCC)n1` [Compound S11S12D4], the “Absolute mRNA transfection efficiency” value in test [1] is given as 0.4%. Also, the “Absolute DNA transfection efficiency” value in test [2] came out at 5.6%.
In the same order, the values of `CCCCCCCCCCCCSc1nc(NCCN2CCN(C)CC2)nc(SCCCCCCCCCCC)n1` [Compound S11S12D5] are 9.2% and 2.8%.
Taken in the same sequence, the figures for `CCCCCCCCCCCCSc1nc(NCCCN(C)C)nc(SCCCCCCCCCCC)n1` [Compound S11S12D6] were 21.5% and 5.2%.
Taken in the same sequence, the figures for `CCCCCCCCCCCCSc1nc(NCCN(CC)CC)nc(SCCCCCCCCCCC)n1` [Compound S11S12D7] were 0.4% and 3.1%.
`CCCCCCCCCCCCSc1nc(NCCCN2CCN(C)CC2)nc(SCCCCCCCCCCC)n1` [Compound S11S12D9]: the “Absolute mRNA transfection efficiency” value in test [1] is 4.2%. Besides, in test [2], the “Absolute DNA transfection efficiency” value turned out to be 2.4%.
Consider `CCCCCCCCCCCCSc1nc(NCC2CCN(C)CC2)nc(SCCCCCCCCCCC)n1` [Compound S11S12D10], for which the “Absolute mRNA transfection efficiency” value in test [1] was 10.5%. For the same compound, the “Absolute DNA transfection efficiency” value in test [2] worked out at 4.8%.
Take `CCCCCCCCCCCCCCSc1nc(NCCN(C)C)nc(SCCCCCCCCCCC)n1` [Compound S11S14D1]: the “Absolute mRNA transfection efficiency” value in test [1] was found to be 1.9%. Moreover, the “Absolute DNA transfection efficiency” value in test [2] came to 2.0%.
Take `CCCCCCCCCCCCCCSc1nc(NCCN2CCOCC2)nc(SCCCCCCCCCCC)n1` [Compound S11S14D2]: in test [1], the “Absolute mRNA transfection efficiency” value is recorded as 0.0%. In test [2], the “Absolute DNA transfection efficiency” value is reported as 0.7%.
On to `CCCCCCCCCCCCCCSc1nc(NCCN2CCCC2)nc(SCCCCCCCCCCC)n1` [Compound S11S14D3], for which the “Absolute mRNA transfection efficiency” value in test [1] was 17.9%. In test [2], the “Absolute DNA transfection efficiency” value was 6.7%.
Taken in the same sequence, the figures for `CCCCCCCCCCCCCCSc1nc(NCCN2CCCCC2)nc(SCCCCCCCCCCC)n1` [Compound S11S14D4] were 0.2% and 3.7%.
In the same order, the values of `CCCCCCCCCCCCCCSc1nc(NCCN2CCN(C)CC2)nc(SCCCCCCCCCCC)n1` [Compound S11S14D5] are 9.1% and 5.1%.
In the case of `CCCCCCCCCCCCCCSc1nc(NCCCN(C)C)nc(SCCCCCCCCCCC)n1` [Compound S11S14D6], the “Absolute mRNA transfection efficiency” value in test [1] is reported as 30.0%. Also, in test [2], the “Absolute DNA transfection efficiency” value was found to be 6.6%.
In the same order, the values of `CCCCCCCCCCCCCCSc1nc(NCCN(CC)CC)nc(SCCCCCCCCCCC)n1` [Compound S11S14D7] are 0.7% and 2.9%.
For `CCCCCCCCCCCCCCSc1nc(NCCCN2CCOCC2)nc(SCCCCCCCCCCC)n1` [Compound S11S14D8], the “Absolute mRNA transfection efficiency” value in test [1] was 4.2%. Besides, the “Absolute DNA transfection efficiency” value in test [2] amounted to 8.8%.
In the same order, the values of `CCCCCCCCCCCCCCSc1nc(NCCCN2CCN(C)CC2)nc(SCCCCCCCCCCC)n1` [Compound S11S14D9] are 9.9% and 4.1%.
As to `CCCCCCCCCCCCCCSc1nc(NCC2CCN(C)CC2)nc(SCCCCCCCCCCC)n1` [Compound S11S14D10], in test [1], the “Absolute mRNA transfection efficiency” value amounted to 38.5%. The “Absolute DNA transfection efficiency” value in test [2] is on record as 58.1%.
In the same order, the values of `CCCCCCCCCCCCCCCSc1nc(NCCN(C)C)nc(SCCCCCCCCCCC)n1` [Compound S11S15D1] are 0.0% and 0.9%.
Taken in the same sequence, the figures for `CCCCCCCCCCCCCCCSc1nc(NCCN2CCOCC2)nc(SCCCCCCCCCCC)n1` [Compound S11S15D2] were 0.0% and 0.3%.
Consider `CCCCCCCCCCCCCCCSc1nc(NCCN2CCCC2)nc(SCCCCCCCCCCC)n1` [Compound S11S15D3], for which the “Absolute mRNA transfection efficiency” value in test [1] was found to be 5.3%. In addition, the “Absolute DNA transfection efficiency” value in test [2] worked out at 7.4%.
Consider `CCCCCCCCCCCCCCCSc1nc(NCCN2CCCCC2)nc(SCCCCCCCCCCC)n1` [Compound S11S15D4], for which, in test [1], the “Absolute mRNA transfection efficiency” value came to 0.9%. The “Absolute DNA transfection efficiency” value in test [2] is given as 5.3%.
In the same order, the values of `CCCCCCCCCCCCCCCSc1nc(NCCN2CCN(C)CC2)nc(SCCCCCCCCCCC)n1` [Compound S11S15D5] are 17.4% and 4.8%.
Taken in the same sequence, the figures for `CCCCCCCCCCCCCCCSc1nc(NCCCN(C)C)nc(SCCCCCCCCCCC)n1` [Compound S11S15D6] were 15.4% and 4.8%.
For `CCCCCCCCCCCCCCCSc1nc(NCCN(CC)CC)nc(SCCCCCCCCCCC)n1` [Compound S11S15D7], in test [1], the “Absolute mRNA transfection efficiency” value was determined as 0.7%. In addition, in test [2], the “Absolute DNA transfection efficiency” value was 5.3%.
In the case of `CCCCCCCCCCCCCCCSc1nc(NCCCN2CCOCC2)nc(SCCCCCCCCCCC)n1` [Compound S11S15D8], the “Absolute mRNA transfection efficiency” value in test [1] is 2.1%. Besides, in test [2], the “Absolute DNA transfection efficiency” value worked out at 3.0%.
In the same order, the values of `CCCCCCCCCCCCCCCSc1nc(NCCCN2CCN(C)CC2)nc(SCCCCCCCCCCC)n1` [Compound S11S15D9] are 3.6% and 1.8%.
Taken in the same sequence, the figures for `CCCCCCCCCCCCCCCSc1nc(NCC2CCN(C)CC2)nc(SCCCCCCCCCCC)n1` [Compound S11S15D10] were 75.9% and 42.3%.
In the same order, the values of `CCCCCCCCCCCCCCCCSc1nc(NCCN(C)C)nc(SCCCCCCCCCCC)n1` [Compound S11S16D1] are 2.4% and 0.5%.
Consider `CCCCCCCCCCCCCCCCSc1nc(NCCN2CCOCC2)nc(SCCCCCCCCCCC)n1` [Compound S11S16D2], for which, in test [1], the “Absolute mRNA transfection efficiency” value is listed as 0.1%. Moreover, the “Absolute DNA transfection efficiency” value in test [2] is reported as 0.0%.
Taken in the same sequence, the figures for `CCCCCCCCCCCCCCCCSc1nc(NCCN2CCCC2)nc(SCCCCCCCCCCC)n1` [Compound S11S16D3] were 0.7% and 6.2%.
Taken in the same sequence, the figures for `CCCCCCCCCCCCCCCCSc1nc(NCCN2CCCCC2)nc(SCCCCCCCCCCC)n1` [Compound S11S16D4] were 0.2% and 1.7%.
In the same order, the values of `CCCCCCCCCCCCCCCCSc1nc(NCCN2CCN(C)CC2)nc(SCCCCCCCCCCC)n1` [Compound S11S16D5] are 5.1% and 4.9%.
`CCCCCCCCCCCCCCCCSc1nc(NCCCN(C)C)nc(SCCCCCCCCCCC)n1` [Compound S11S16D6]: the “Absolute mRNA transfection efficiency” value in test [1] is 9.3%. Moreover, the “Absolute DNA transfection efficiency” value in test [2] was determined as 2.7%.
Regarding `CCCCCCCCCCCCCCCCSc1nc(NCCN(CC)CC)nc(SCCCCCCCCCCC)n1` [Compound S11S16D7], the “Absolute mRNA transfection efficiency” value in test [1] is listed as 0.5%. In test [2], the “Absolute DNA transfection efficiency” value is 2.2%.
Consider `CCCCCCCCCCCCCCCCSc1nc(NCCCN2CCOCC2)nc(SCCCCCCCCCCC)n1` [Compound S11S16D8], for which the “Absolute mRNA transfection efficiency” value in test [1] was found to be 0.9%. The “Absolute DNA transfection efficiency” value in test [2] was found to be 4.7%.
Regarding `CCCCCCCCCCCCCCCCSc1nc(NCCCN2CCN(C)CC2)nc(SCCCCCCCCCCC)n1` [Compound S11S16D9], the “Absolute mRNA transfection efficiency” value in test [1] turned out to be 16.4%. Further, in test [2], the “Absolute DNA transfection efficiency” value amounted to 3.6%.
In the same order, the values of `CCCCCCCCCCCCCCCCSc1nc(NCC2CCN(C)CC2)nc(SCCCCCCCCCCC)n1` [Compound S11S16D10] are 89.2% and 49.0%.
`CCCCCCCCCCCCCCCCCCSc1nc(NCCN(C)C)nc(SCCCCCCCCCCC)n1` [Compound S11S18D1]: the “Absolute mRNA transfection efficiency” value in test [1] amounted to 2.7%. Moreover, in test [2], the “Absolute DNA transfection efficiency” value worked out at 0.6%.
Taken in the same sequence, the figures for `CCCCCCCCCCCCCCCCCCSc1nc(NCCN2CCOCC2)nc(SCCCCCCCCCCC)n1` [Compound S11S18D2] were 0.1% and 0.2%.
`CCCCCCCCCCCCCCCCCCSc1nc(NCCN2CCCC2)nc(SCCCCCCCCCCC)n1` [Compound S11S18D3]: the “Absolute mRNA transfection efficiency” value in test [1] is 11.6%. Moreover, the “Absolute DNA transfection efficiency” value in test [2] worked out at 4.8%.
Taken in the same sequence, the figures for `CCCCCCCCCCCCCCCCCCSc1nc(NCCN2CCCCC2)nc(SCCCCCCCCCCC)n1` [Compound S11S18D4] were 1.4% and 3.3%.
